Source: patent US5869494A, “Uses for barbituric acid analogs” (priority 1997, dated 1999)
“Also recorded” adds a separate entry of the source. Read-outs that look alike come from different tables or passages of the source.

Tests used:
[1] = tested on: DU-145 human prostate tumors; test: Human DU-145 prostate tumors transplanted into athymic mice, oral treatment; type: in vivo, athymic BALB/c nude-nu mice; settings: 400 mg/kg oral
Excerpt: Male athymic BALB/c nude-nu mice (6-8 weeks old, 18-22 g each) were purchased from Harlan Sprague-Dawley, Inc. (Indianapolis, Ind.) and maintained in a germ-free environment. The mice had free access to sterile food and water. Human prostate DU-145 cells (1×10^7) were transplanted subcutaneously into athymic mice. Solid tumors appearing after 30 days were cut into small pieces (2-2 mm) and transplanted into native mice. […] The treatment schedule consisted of a single dose on alternate days. The control group of animals (3 mice) received vehicle only. […] At this point, the treatment was terminated and animals were kept under observation for the regrowth of prostate tumors.
formula % TGI = 100(1Vt /Vc), where Vt and Vc are the […]

[2] = Alleviation of depression in HIV-1 positive subjects; type: in vivo, human; settings: 4.3 mg/kg for 15 days; three HIV-1 positive subjects
MALME-3M = test: NCI tumor cell line screen (SRB assay); type: cell-based; settings: Homo sapiens, read-out: PERCENT GROWTH
Method: (§1) The National Cancer Institute carried out the studies at the direction of the present inventor.
(§2) In the tests, the National Cancer Institute used the SRB (sulforhodamine B) assay as described by Skehan et al., (Journal of the National Cancer Institute, 82:13, Jul. 4, 1990, 1107-1112). Briefly, the assay is as follows. TCA-fixed cells were stained for 30 minutes with 0.4% (wt/vol) SRB dissolved in 1% acetic acid. At the end of the staining period, SRB was removed and cultures were quickly rinsed four times with 1% acetic acid to remove unbound dye. The acetic acid was poured directly into the culture wells from a beaker. […] Residual wash solution was removed by sharply flicking plates over a sink, which ensured the complete removal of rinsing solution. […] After being rinsed, the cultures were air dried until no standing moisture was visible. Bound dye was solubilized with 10 mM unbuffered Tris base (pH 10.5) for 5 minutes on a gyratory shaker.
(§3) Optical density (OD) was read in either a UVmax microtiter plate reader (Molecular Devices, Menlo Park, Calif.) or a Beckman DU-70 spectrophotometer. For maximum sensitivity, OD was measured at 564 nm. Because readings were linear with dye concentrations only below 1.8 OD units, however, suboptimal wavelengths were generally used, so that all samples in an experiment remained within the linear OD range. With most cell lines, wavelengths of approximately 490-530 nm worked well for this purpose.
(§4) Nine different non-small cell lung carcinoma cell lines, six different colon carcinoma cell lines, six different CNS (central nervous system) carcinoma cell lines, seven different melanoma cell lines, six different ovarian carcinoma cell lines, and eight different renal carcinoma cell lines were tested.

NCI-H322M = test: NCI tumor cell line screen (SRB assay); type: cell-based; settings: Homo sapiens, read-out: PERCENT GROWTH
Method: as §1, §2, §3, §4

HCT-15 = test: NCI tumor cell line screen (SRB assay); type: cell-based; settings: Homo sapiens, read-out: PERCENT GROWTH
Method: as §1, §2, §3, §4

[3] = tested on: human fibrosarcoma HT-1080 cells; test: Effect on human fibrosarcoma HT-1080 cells (trypan blue dye exclusion); type: cell-based; settings: for viability at 25 µg/mL / viability at 50 µg/mL / viability at 100 µg/mL / viability at 150 µg/mL: HT-1080, read-out: Percent survival; for viability at 25 µg/mL: 25 μg/ml; for viability at 50 µg/mL: 50 μg/ml
Method: Human fibrosarcoma cells were cultured in Minimum essential medium (Eagle) with non-essential amino acids and Earls balanced salt solution supplemented with 10% heat-inactivated fetal bovine serum. Cells (5×10^3 in 0.5 ml of growth medium) were plated in 16 well plates and incubated at 37° C. in a humidified atmosphere of 5% CO2 in air for 24 h. Cells were then treated with different doses of C1. Control wells received vehicle only (<0.5% ethanol in saline). After further incubation periods of 24 and 48 h, the viability of cells was determined by trypan blue dye exclusion method.

[4] = tested on: Herpes simplex virus (HSV); test: Inactivation of Herpes simplex virus (plaque assay on Vero cells); type: cell-based; settings: for PFU/ml: control 7.1 × 10^5
Method: The control sample received vehicle only. After the incubation period, samples were serially diluted and 0.1 ml of each dilution and the undiluted samples were inoculated into monolayers of Vero cells (African green monkey kidney cells). Overlay medium was added and the monolayers were incubated at 37° C. After 3 days of incubation, the overlay medium was removed, and the monolayer cells were fixed with methanol and treated with Giemsa stain.

[5] = Homo sapiens, 24 h, control 92.3 ± 3.1
[6] = Homo sapiens, 48 h, control 92.4 ± 3.1
[7] = Vero, 150 μg/ml, 24 h at 37° C.

With CCCCN1C(=O)CC(=O)N(CCCC)C1=S [Compound C1, 4,6(1H, 5H)-pyrimidinedione, 1,3-dibutyldihydro-2-thioxo] the regrowth of tumors ([1]; 5 months posttreatment) was “no signs of tumor regrowth; also recorded: regrowth of treated tumors did not occur for a period of 5 months”, the palpable prostate tumors ([1]; after 18 doses) was “palpable prostate tumors in the treated group could not be detected; also recorded: palpable tumors were not detectable in treated animals” and the “% TGI (percent tumor growth inhibition)” value ([1]; alternate days, 18 doses) was 99.0%. The “side effects such as weight loss, diarrhea, lethargy or discomfort” value ([1]; alternate days, 18 doses) was “not observed; also recorded: No observable side effects”, the “Tumor Area” value ([1]; alternate days, 18 doses, control 19.90 ± 7.1) was 0.0 cm^2 and the “Tumor Volume” value ([1]; alternate days, 18 doses, control 20.64 ± 7.01) was 0.0 cm^3. For the same compound, the “Animal Weight” value ([1]; alternate days, 18 doses, control 28.5) was 29.3 g, the “symptoms reported by subjects” value [2] was “alleviation from lethargy, depression and an increased appetite, feeling of being happy, and desire to live” and the activity (MALME-3M; 10^-3.0 Molar) was -83%. It also gave an activity at 100 µM (MALME-3M; 10^-4.0 Molar) of 81%, an activity at 10 µM (MALME-3M; 10^-5.0 Molar) of 101% and an activity at 1 µM (MALME-3M; 10^-6.0 Molar) of 101%. The activity at 0.1 µM (MALME-3M; 10^-7.0 Molar) was 101%, the activity (NCI-H322M; 10^-3.0 Molar) was -100% and the activity at 100 µM (NCI-H322M; 10^-4.0 Molar) was 127%. It also gave an activity at 10 µM (NCI-H322M; 10^-5.0 Molar) of 136%, an activity at 1 µM (NCI-H322M; 10^-6.0 Molar) of 144% and an activity at 0.1 µM (NCI-H322M; 10^-7.0 Molar) of 145%. The activity at 100 µM (HCT-15; 10^-4.0 Molar) was 72%, the activity at 10 µM (HCT-15; 10^-5.0 Molar) was 102% and the activity at 1 µM (HCT-15; 10^-6.0 Molar) was 102%. For the same compound, the activity at 0.1 µM (HCT-15; 10^-7.0 Molar) was 99%, the fibrosarcoma cells killed ([3]; 25 μg/ml (lowest dose), 48 h) was “virtually all fibrosarcoma cells were killed” and the fibrosarcoma cells killed ([3]; 100 μg/ml, 24 h) was “Virtually all fibrosarcoma cells were killed”. For the same compound, the fibrosarcoma cells killed ([3]; 150 μg/ml, 24 h) was “Virtually all fibrosarcoma cells were killed”, the cytotoxicity at 50 µg/mL ([3]; Homo sapiens, HT-1080, 24 h, read-out: cells killed) was > 92% and the viability at 25 µg/mL [3, 5] was 0.03 ± 0.03%. For the same compound, the viability at 25 µg/mL [3, 6] was 0%, the viability at 50 µg/mL [3, 5] was 0.03 ± 0.03% and the viability at 50 µg/mL [3, 6] was 0%. For the same compound, the viability at 100 µg/mL ([3]; Homo sapiens, 100 μg/ml, 24 h, control 92.3 ± 3.1) was 0%, the viability at 100 µg/mL ([3]; Homo sapiens, 100 μg/ml, 48 h, control 92.4 ± 3.1) was 0% and the viability at 150 µg/mL ([3]; Homo sapiens, 150 μg/ml, 24 h, control 92.3 ± 3.1) was 0%. For the same compound, the viability at 150 µg/mL ([3]; Homo sapiens, 150 μg/ml, 48 h, control 92.4 ± 3.1) was 0%, the PFU/ml ([4]; 30 μg/ml, 24 h at 37° C.) was 2.1 × 10^5 PFU/ml and the PFU/ml ([4]; 120 μg/ml, 24 h at 37° C.) was 6.5 × 10^5 PFU/ml. For the same compound, the PFU/ml ([4]; 150 μg/ml, 24 h at 37° C.) was 7.5 × 10^5 PFU/ml, the log reduction at 120 µg/mL ([4]; Vero, 24 h) was 2.04 and the killing at 120 µg/mL ([4]; Vero, 24 h, read-out: % Inactivation) was 99%. For the same compound, the killing at 30 µg/mL ([4]; Vero, 30 μg/ml, 24 h at 37° C.) was 70.4%, the log reduction at 30 µg/mL ([4]; Vero, 30 μg/ml, 24 h at 37° C.) was 0.53 and the killing at 60 µg/mL ([4]; Vero, 60 μg/ml, 24 h at 37° C.) was 78.9%. For the same compound, the log reduction at 60 µg/mL ([4]; Vero, 60 μg/ml, 24 h at 37° C.) was 0.68, the killing at 150 µg/mL [4, 7] was 99.9% and the log reduction at 150 µg/mL [4, 7] was 3.
